From patent US11524966B1 (Valo Early Discovery, Inc., priority 2017, dated 2022) come the findings set out here.

By IC50 is commonly meant the point on the concentration scale where inhibition reaches its midpoint.

For the experiment, the target named is T1, USP25 (USP25-His6, Boston Biochem E-546) (Homo sapiens, UniProt Q9UHP3).
T1 construct: His6; purchased Boston Biochem E-546
T1 sequence (Q9UHP3 1-1055): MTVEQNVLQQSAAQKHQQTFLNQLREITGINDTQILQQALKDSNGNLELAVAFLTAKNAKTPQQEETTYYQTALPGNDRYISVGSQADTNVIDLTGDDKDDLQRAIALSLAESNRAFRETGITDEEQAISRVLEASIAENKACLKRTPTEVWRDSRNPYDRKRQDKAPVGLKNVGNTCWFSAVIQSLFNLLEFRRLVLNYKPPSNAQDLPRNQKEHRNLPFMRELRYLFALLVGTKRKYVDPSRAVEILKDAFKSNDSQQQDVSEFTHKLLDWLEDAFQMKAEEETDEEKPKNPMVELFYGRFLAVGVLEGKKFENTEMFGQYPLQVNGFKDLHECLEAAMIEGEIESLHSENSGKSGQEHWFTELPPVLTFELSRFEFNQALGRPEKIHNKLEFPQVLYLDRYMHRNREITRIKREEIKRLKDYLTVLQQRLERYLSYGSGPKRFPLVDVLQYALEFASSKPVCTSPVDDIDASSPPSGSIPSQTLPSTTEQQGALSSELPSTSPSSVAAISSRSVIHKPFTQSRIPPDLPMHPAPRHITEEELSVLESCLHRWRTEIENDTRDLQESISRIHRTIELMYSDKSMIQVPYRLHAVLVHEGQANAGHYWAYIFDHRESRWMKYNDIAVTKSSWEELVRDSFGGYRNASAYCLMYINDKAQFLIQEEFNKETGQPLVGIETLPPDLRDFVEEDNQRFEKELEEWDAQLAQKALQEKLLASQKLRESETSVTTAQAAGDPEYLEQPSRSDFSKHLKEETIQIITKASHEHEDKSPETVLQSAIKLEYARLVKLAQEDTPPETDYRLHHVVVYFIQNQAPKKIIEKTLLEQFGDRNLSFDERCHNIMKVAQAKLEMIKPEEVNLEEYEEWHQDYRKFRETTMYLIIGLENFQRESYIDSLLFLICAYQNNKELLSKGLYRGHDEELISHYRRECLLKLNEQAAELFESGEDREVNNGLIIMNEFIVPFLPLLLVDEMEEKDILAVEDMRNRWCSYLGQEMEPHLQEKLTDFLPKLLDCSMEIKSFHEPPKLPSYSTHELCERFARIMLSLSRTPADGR
The experiment in a line: Ubiquitin-Rhodamine 110 Assay for USP25 Activity, Example A-2. The class given is biochemical. As to conditions: Ubiquitin-Rhodamine 110 assay, Example A-2; read-out: USP25 A-2 IC50 range. The procedure, abridged:
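USP25-His6 (75 pM) was preincubated with compound (10-point, 3-fold series, 25 μM to 1.3 nM) for 30 min in 20 mM Tris-HCl pH 8.0, 3 mM BME, 0.03% BGG, 0.01% Triton X-100. Ub-Rh110 (25 nM, <<Km) was then added for 45 min at room temperature, citric acid-stopped, and fluorescence read at 485/535 nm.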
For the compound `Cc1ccc2c(N)c(C(=O)N[C@H]3CCc4nc(N5C[C@H](OC6CCC6)[C@@H](N)C5)ccc4C3)sc2n1` [Example 285, 3-amino-N-[(6S)-2-[(3S,4S)-3-amino-4-cyclobutoxypyrrolidin-1-yl]-5,6,7,8-tetrahydroquinolin-6-yl]-6-methylthieno[2,3-b]pyridine-2-carboxamide], the IC50 was more than 2 µM.

With `CO[C@@H]1CN(c2ccc3c(c2)OC[C@H](NC(=O)c2sc4nc(C)ccc4c2N)C3)[C@H](C)[C@H]1N` [Example 335, 3-amino-N-[(3R)-7-[(2R,3R,4R)-3-amino-4-methoxy-2-methylpyrrolidin-1-yl]-3,4-dihydro-2H-1-benzopyran-3-yl]-6-methylthieno[2,3-b]pyridine-2-carboxamide], the IC50 is 0.2 to 2 µM.

Take `CO[C@]1(C)CN(c2ccc3c(n2)OC[C@H](NC(=O)c2sc4nc(C)ccc4c2N)C3)C[C@H]1N` [Example 326, 3-amino-N-[(3R)-7-[(3R,4R)-4-amino-3-methoxy-3-methylpyrrolidin-1-yl]-2H,3H,4H-pyrano[2,3-b]pyridin-3-yl]-6-methylthieno[2,3-b]pyridine-2-carboxamide]: the IC50 was more than 2 µM.

For the compound `Cc1ccc2c(N)c(C(=O)N[C@H]3COc4cc(N5C[C@H](N)[C@]6(CCCO6)C5)ccc4C3)sc2n1` [Example 307, 3-amino-N-[(3R)-7-[(5S,9S)-9-amino-1-oxa-7-azaspiro[4.4]nonan-7-yl]-3,4-dihydro-2H-1-benzopyran-3-yl]-6-methylthieno[2,3-b]pyridine-2-carboxamide], the IC50 lay within 0.2 to 2 µM.

In the case of `COC[C@@H]1CN(c2ccc3c(n2)CC[C@H](NC(=O)c2sc4nc(C)ccc4c2N)C3)C[C@H]1N` [Example 328, 3-amino-N-[(6S)-2-[(3S,4R)-3-amino-4-(methoxymethyl)pyrrolidin-1-yl]-5,6,7,8-tetrahydroquinolin-6-yl]-6-methylthieno[2,3-b]pyridine-2-carboxamide], the IC50 was more than 2 µM.

As to `CO[C@H]1CCN(c2ccc3c(n2)CC[C@H](NC(=O)c2sc4nc(C)ccc4c2N)C3)C[C@@H]1N` (single isomer, unassigned) [Example 315], the IC50 lay in the range of 0.2 to 2 µM.

As to `COC[C@@H]1CN(c2nc3c(cc2F)C[C@@H](NC(=O)c2sc4nc(C)ccc4c2N)CC3)C[C@@H]1N` [Example 300, 3-amino-N-[(6S)-2-[(3R,4R)-3-amino-4-(methoxymethyl)pyrrolidin-1-yl]-3-fluoro-5,6,7,8-tetrahydroquinolin-6-yl]-6-methylthieno[2,3-b]pyridine-2-carboxamide], the IC50 is more than 2 µM.

Turning to `CO[C@@H]1CCN(c2ccc3c(n2)CC[C@H](NC(=O)c2sc4nc(C)ccc4c2N)C3)C[C@H]1N` (single isomer, unassigned) [Example 316], the half-inhibitory concentration (IC50) is more than 2 µM.
